Results from patent US8278282B2, “Nucleoside analogs for treatment of viral infections” (Novartis AG, priority 2007, dated 2012).

Columns and labels:
dengue virus serotype 1 = assay: microbe, parasite or virus in culture; type: cell-based
dengue virus serotype 4 = assay: microbe, parasite or virus in culture; type: cell-based
yellow fever virus = assay: microbe, parasite or virus in culture; type: cell-based
West Nile virus = assay: microbe, parasite or virus in culture; type: cell-based
[1] = system: Japanese encephalitis virus; assay: microbe, parasite or virus in culture; type: cell-based
HCV replicon = assay: Cell-based HCV replicon assay; details: Hepatitis C virus
TSV01 dengue virus 2 = assay: Mouse model of dengue infection (viremia by plaque assay); details: 25 mg/kg bid, compared to the control group
dengue virus serotype 2 = assay: microbe, parasite or virus in culture; type: cell-based

C#C[C@@]1(O)[C@H](O)[C@@H](CO)O[C@H]1n1ccc2c(N)ncnc21 [Example 1, (2R,3R,4R,5R)-2-(4-Amino-pyrrolo[2,3-d]pyrimidin-7-yl)-3-ethynyl-5-hydroxymethyl-tetrahydrofuran-3,4-diol]
EC50 (dengue virus serotype 1): ~200 nM
EC50 (dengue virus serotype 4): ~200 nM
EC50 (yellow fever virus): ~900 nM
EC50 (West Nile virus): ~3750 nM
EC50 [1]: ~1300 nM
EC50 (HCV replicon): ~100 nM
reduction in viremia (TSV01 dengue virus 2): about 20 fold

C#C[C@@]1(O)[C@H](O)[C@@H](CO)O[C@H]1n1cc(F)c2c(N)ncnc21 [Example 4, (2R,3R,4R,5R)-2-(4-Amino-5-fluoro-pyrrolo[2,3-d]pyrimidin-7-yl)-3-ethynyl-5-hydroxymethyl-tetrahydrofuran-3,4-diol]
EC50 (dengue virus serotype 2): ~400 nM

C#Cc1cn([C@@H]2O[C@H](CO)[C@@H](O)[C@]2(O)C#C)c2ncnc(N)c12 [Example 8, (2R,3R,4R,5R)-2-(4-Amino-5-ethynyl-pyrrolo[2,3-d]pyrimidin-7-yl)-3-ethynyl-5-hydroxymethyl-tetrahydro-furan-3,4-diol]
EC50 (dengue virus serotype 2): ~600 nM
